Reference: PMC12756723, “Derivatives of the Cashew Nut Shell Liquid as Ligands of Pseudomonas aeruginosa Phenazine Protein D (PaPhzD)” (ACS Omega, 2025)
“Also recorded” adds a separate entry of the source.

Experiments:
human PPAR isoforms = system: human PPAR isoforms; set-up: method as in Sahin et al. 2022 (likely, number not given); conditions: previously investigated; ref Sahin et al. 2022 (likely, number not given); cited from earlier work
PaPhzD = molecular target: T1, PaPhzD (Pseudomonas aeruginosa, UniProt P0DPB9); experiment: Thermal shift assay (TSA) with SYPRO Orange; assay type: binding; conditions: for ΔTm at 50 µM: read-out: ΔTm of PaPhzD; for Concentration–response behavior of ΔTm: 6.25 to 100 μM
T1 construct: inferred from Ni-NTA purification with imidazole elution; made in house; host or cells: E. coli BL21(DE3)
T1 sequence (P0DPB9 whole entry): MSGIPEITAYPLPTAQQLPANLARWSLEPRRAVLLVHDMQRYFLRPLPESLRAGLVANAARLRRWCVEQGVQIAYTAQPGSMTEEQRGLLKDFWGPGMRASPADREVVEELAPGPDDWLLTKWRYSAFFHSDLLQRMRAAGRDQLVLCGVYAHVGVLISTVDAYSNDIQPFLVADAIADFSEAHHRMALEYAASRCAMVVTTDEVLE
Protocol: Thermal shift assays were performed on an Applied Biosystems 7500 RT-PCR (Applied Biosystems, Foster City, CA USA). All experiments were carried out in triplicate with 1 °C per minute increments in temperatures that range from 25 to 85 °C in 96-well PCR plates (PCR plates 96-well, BioRad), sealed with transparent capping strips (Flatcap strips, BioRad). The fluorescence of SYPRO Orange (Invitrogen S6650) was monitored (excitation wavelength, 492 nm; emission wavelength, 610 nm). Before the compounds’ screening, protein and DMSO concentrations were evaluated to improve PaPhzD stability throughout the assay.
The protein concentration required for an optimal signal-to-noise ratio (>5-fold) was evaluated by analysis of the raw fluorescence curves at different PaPhzD concentrations (1–5 μM). Then, the effect of DMSO (0–10%) over PaPhzD T m was evaluated at the optimal protein concentration. Fluorescence raw data were recorded using Applied Biosystems 7500 Software v2.0 and then processed with NAMI software to calculate T m values by the first-derivative method.
LDT compounds were screened at a final concentration of 50 μM. Briefly, 1 μL of each compound (1 mM DMSO stock solution) was added to a mixed solution containing 5 μM PaPhzD diluted in 50 mM Tris–HCl buffer (pH 8.0) containing 100 mM NaCl, 1 mM DTT, and SYPRO Orange dye (Invitrogen S6650) (1:100 dilution). Each compound was assayed in triplicate, and ΔT m values were calculated by comparison to reference wells that had 1 μL DMSO instead of the LDT compounds. Differences between T m values (ΔT m) were considered statistically significant when p < 0.01, according to the one-way ANOVA followed by Dunnett’s post-test for multiple comparisons, available in GraphPad Prism 9.0 software (GraphPad Software, San Diego, CA, USA, www.graphpad.com).
Compounds with ΔT m values statistically different from the reference were also assayed at different concentrations (ranging from 6.25 to 100 μM) to evaluate the concentration–response behavior. The ΔT m versus concentration plots were generated using the nonlinear regression method available in GraphPad Prism version 9.0.

PPAR LBDs = system: PPAR LBDs; set-up: method as in not printed (previous PPAR work); conditions: ref not given (previous PPAR work), cited from earlier work
P. aeruginosa PA14 [1] = experiment: Swarming assay; assay type: cell-based, Pseudomonas aeruginosa; conditions: 100 μM
Protocol: Swarming assays were performed as described, using 6-well plates. Briefly, 3 μL of culture (OD600 = 3.0) was inoculated in the center of modified M9 (20 mM NH4Cl; 12 mM Na2HPO4; 22 mM KH2PO4; 8.6 mM NaCl; 1 mM MgSO4; 1 mM CaCl2 2 H2O; 11 mM glucose; 0.5% casamino acids (Difco)) with 0.5% of Bacto-agar (Difco), containing the respective compounds (100 μM final concentration, diluted in DMSO). Plates were incubated inside plastic bags to avoid evaporation at 30 °C for 16 h. After this period, pictures were taken, and the area covered by the colonies was measured using ImageJ. All assays were performed with four replicates, and 0.1% DMSO (v/v) was employed as a negative control.

PaPhzD-FITC = molecular target: T2, PaPhzD-FITC (Pseudomonas aeruginosa, UniProt P0DPB9); experiment: Fluorescence binding assay with FITC-labeled PaPhzD
T2 construct: inferred from Ni-NTA purification with imidazole elution; made in house; host or cells: E. coli BL21(DE3)
T2 sequence (P0DPB9 whole entry): as above
Protocol: PaPhzD (2.1 mg/mL) was incubated with 6 mg/mL fluorescein isothiocyanate (FITC) (Sigma-Aldrich 46950) (1:1) for 2 h at 25 °C. Next, the reaction mixture was eluted on a Hi-Trap HP desalting column (GE Healthcare) with 2 CV of 50 mM HEPES buffer (pH 8.0). The collected fractions were quantified at two different wavelengths (280 and 495 nm), and the molar ratio (Abs495/Abs280) ranging from 0.3 to 1.0 was employed for K d calculation experiments.
Subsequently, the fluorescence intensity of 0.32 μM of FITC-labeled PaPhzD was measured on a real-time thermocycler (Applied Biosystems 7500) equipped with the filter FAN (excitation wavelength: 498 nm; emission wavelength: 530 nm) for 10 min in the presence of different concentrations of each LDT compound (ranging 0.7–100 μM), previously diluted in DMSO.
The fluorescence raw data were recorded using Applied Biosystems 7500 Software v2.0, then exported to GraphPad Prism version 9.0 software to build fluorescence intensity × concentration plots and calculate K d values of the ligands by the nonlinear regression method (3-parameter fit). All experiments were carried out in triplicate using a 96-well PCR plate, manually sealed with transparent capping strips (Flatcap strips, BioRadVR).

P. aeruginosa = experiment: Colony morphology in medium containing compounds; assay type: cell-based, Pseudomonas aeruginosa; conditions: data not shown
[2] = system: P. aeruginosa cells (ATCC 27853); experiment: Screening of PYO production inhibitors (supernatant absorbance 691 nm); assay type: cell-based, Pseudomonas aeruginosa; conditions: 100 μM; for Pyocyanin production, Cohen's d vs control: 24 h, 30 °C; for Effect on pyocyanin production: vs DMSO control
Protocol: P. aeruginosa cells (ATCC 27853) were inoculated by depletion on King’s A agar, and the plates were incubated at 30 °C for 24 h. Isolated colonies were collected and resuspended in sterile saline solution (0.85%) until turbidity equivalent to optical density (OD) at 600 nm, equal to 0.3 (1.5 × 10^8 CFU/mL). This bacterial suspension was diluted 10-fold and used to inoculate King’s A broth.
(§1) The potential inhibitors, previously solubilized in DMSO, were added to the culture medium after the inoculation (final concentration = 100 μM). The control group was cultured in the presence of an equivalent volume of DMSO but without the presence of potential inhibitors. The cell suspension was maintained at 30 °C under constant agitation (180 rpm) for 24 h in a 24-well plate. After this period, the OD600 was measured to evaluate bacterial growth, and in parallel, after being subjected to centrifugation, the supernatant was read in a 96-well plate at a wavelength of 691 nm. The sterile medium used for culturing the microorganism was used as a positive control, and culture medium containing 1% DMSO was used as a negative control.

P. aeruginosa PA14 [3] = experiment: Biofilm assay (crystal violet); assay type: cell-based, Pseudomonas aeruginosa; conditions: 100 μM
Protocol: Exponential phase cultures of P. aeruginosa PA14 were diluted to 5 × 10^5 colony forming units (CFU) in 48-well plates with LB containing each compound (1, 3, and 5) at 100 μM final concentrations or 0.1% DMSO (v/v) as a negative control. The plate was incubated steadily at 30 °C for 20 h inside a plastic bag to avoid evaporation. After the incubation, the OD600 of each well was measured in a plate reader (SpectraMax Paradigm). The planktonic bacteria were removed by turning the plate over the waste, followed by three steps of washing with distilled water. After drying, a solution of 1% crystal violet was added to each well and incubated at room temperature for 30 min to stain the attached cells forming a ring at the air–liquid interface. The crystal violet solution was removed, and the plate was washed using the same procedure. The dye was solubilized with 30% acetic acid for 30 min at room temperature. The Abs550 was measured, and the value was divided by the OD600 for each well. A total of 24 replicates were made for each treatment (6 wells per plate, four plates)

phzA2-G2 = experiment: lacZ transcriptional fusion, phzA2-G2 operon; assay type: cell-based, Pseudomonas aeruginosa; conditions: late exponential phase
Protocol: (§2) P. aeruginosa harbors two identically structured operons in its genome, which encode most of the enzymes responsible for PYO synthesis (phzA1-G1 and phzA2-G2) but have slightly different regulatory regions 1. lacZ transcriptional fusions for each operon were assayed at mid-log and late exponential phases (OD=1 and 3, respectively). At mid-log cultures, the expression of both QS-regulated operons is extremely low, and it increases more than 1000-fold at late exponential phase for phzA1-G1 and 4-fold for phzA2-G2, as expected. Addition of compounds 2 and 4 had no effect for both operons in the late […]
(§3) synthesis is not related to inhibition at the transcriptional level.
(§4) Figure 7S: Effect of LDT10 (2) and LDT13 (3) on the phzA1-G1 (A) and phzA2-G2 […]
(§5) (1 picture or pasted object on this page, not shown here)

phzA1-G1 = experiment: lacZ transcriptional fusion, phzA1-G1 operon; assay type: cell-based, Pseudomonas aeruginosa; conditions: late exponential phase
Protocol: as §2, §3, §4, §5

[4] = system: P. aeruginosa cells (ATCC 27853); experiment: Bacterial growth (OD600) in the PYO screening culture; assay type: cell-based, Pseudomonas aeruginosa; conditions: 100 μM
Protocol: as §1

CCCCCCCCCCCCCCCc1cccc(OC)c1C(=O)OC [Compound 9]
PPAR activity profile (human PPAR isoforms): do not activate PPAR receptors | ΔTm at 50 µM (PaPhzD): < 0.5 °C

CCCCCCCCCCCCCCCc1cccc(OC(C)(C)C(=O)OCC)c1 [Compound 14]
PPAR activity profile (human PPAR isoforms): dual (PPARα and PPARγ) agonists | Effect on Tm values for all three PPARs (PPAR LBDs): no effect on the T m values | ΔTm at 50 µM (PaPhzD): < 0.5 °C

CCCCCCCCCCCCCCCc1cccc(OC(C)=O)c1C(=O)OC [Compound 8]
PPAR activity profile (human PPAR isoforms): do not activate PPAR receptors | ΔTm at 50 µM (PaPhzD): < 0.5 °C

CCCCCCCCCCCCCCCc1cccc(OC(C)=O)c1 [Compound 11]
PPAR activity profile (human PPAR isoforms): do not activate PPAR receptors | ΔTm at 50 µM (PaPhzD): < 0.5 °C

CCCCCCCCCCCCCCCc1cccc(OC)c1 [Compound 12]
PPAR activity profile (human PPAR isoforms): do not activate PPAR receptors | ΔTm at 50 µM (PaPhzD): < 0.5 °C

CCCCCCCCCCCCCCCc1cccc(OC(C)(C)C(=O)O)c1 [Compound 16]
PPAR activity profile (human PPAR isoforms): pan-agonist activity | ΔTm at 50 µM (PaPhzD): -2.6 °C

CCCCCCCCCCCCCCCc1cccc(OC(C)=O)c1C(=O)O [Compound 3]
Effect on swarming coverage area (P. aeruginosa PA14 [1]): did not affect the coverage area | Swarming motility, Cohen's d vs control (P. aeruginosa PA14 [1]): 0.51 | Kd (PaPhzD-FITC): 0.72 µM | PPAR activity profile (human PPAR isoforms): pan-agonist activity | Increase of PPAR LBDs Tm vs DMSO control (PPAR LBDs; 50 μM): up to +17 °C | Effect on colony morphology (P. aeruginosa): No effects on colony morphology | Pyocyanin production, Cohen's d vs control [2]: −1.37 | Effect on pyocyanin production [2]: no effect on pyocyanin production | Biofilm mass, % of the control (P. aeruginosa PA14 [3]): ~30% | Biofilm, Cohen's d vs control (P. aeruginosa PA14 [3]): −2.29 | Concentration–response behavior of ΔTm (PaPhzD): clear concentration–response behavior | ΔTm at 50 µM (PaPhzD): -4.7 °C

CCCCCCCCCCCCCCCc1cccc(OCC(=O)OCC)c1 [Compound 13]
PPAR activity profile (human PPAR isoforms): pan-agonist activity | Thermal shift in LBDs of PPARα and PPARγ (PPAR LBDs): negative thermal shift | ΔTm at 50 µM (PaPhzD): -1.2 °C

CCCCCCCCCCCCCCCc1cccc(OC)c1C(=O)O [Compound 4]
Effect on phzA2-G2 transcription (phzA2-G2): no effect | Swarming motility, % compared to control conditions (P. aeruginosa PA14 [1]): 65% | Swarming motility, Cohen's d vs control (P. aeruginosa PA14 [1]): −0.95 | Effect on phzA1-G1 transcription (phzA1-G1): no effect | Kd (PaPhzD-FITC): 3.6 µM | PPAR activity profile (human PPAR isoforms): selective PPARα agonist | Effect on colony morphology (P. aeruginosa): No effects on colony morphology | Pyocyanin production, Cohen's d vs control [2]: −2.69 | Effect on pyocyanin production [2]: decreased pyocyanin production | Effect on biofilm formation (P. aeruginosa PA14 [3]; vs DMSO control): without affecting bacterial growth or biofilm formation; also recorded: not significantly different the control | Effect on bacterial growth [4]: without affecting bacterial growth; also recorded: no significant effect on bacterial growth | Concentration–response behavior of ΔTm (PaPhzD): clear concentration–response behavior | ΔTm at 50 µM (PaPhzD): -3.3 °C

CCCCCCCCCCCCCCCc1cccc(O)c1C(=O)OC [Compound 7]
PPAR activity profile (human PPAR isoforms): do not activate PPAR receptors | ΔTm at 50 µM (PaPhzD): < 0.5 °C

CCCCCCCCCCCCCCCc1ccc(C(=O)O)c(OC)c1 [Compound 10]
PPAR activity profile (human PPAR isoforms): dual (PPARα and PPARγ) agonists | ΔTm at 50 µM (PaPhzD): -1.2 °C

CCCCCCCCCCCCCCCc1cccc(OCC(=O)O)c1 [Compound 15]
Kd (PaPhzD-FITC): 1000 µM | PPAR activity profile (human PPAR isoforms): pan-agonist activity | Concentration–response behavior of ΔTm (PaPhzD): clear concentration–response behavior | ΔTm at 50 µM (PaPhzD): -3.8 °C

CCCCCCCCCCCCCCCc1cccc(O)c1C(=O)O [Compound 1]
PPAR activity profile (human PPAR isoforms): dual (PPARα and PPARγ) agonists | Concentration–response behavior of ΔTm (PaPhzD): clear concentration–response behavior
